# Results taken from paper PMC11491487 (Nature Communications, 2024).
# “And” between values parts separate entries of the source, which are not always exact repeats. Equal entries are not always repeated.
# Assays:
# chiRyR [1] = target: T1, chiRyR (Oryctolagus cuniculus, UniProt P11716, C4657I/F4564Y/L4792S/R4563K); assay: biochemical; assay type: biochemical, rabbit
# chiRyR [2] = target: T1, chiRyR; assay: cell-based; set-up: species or system rabbit
# rRyR1 = rRyR1 (Oryctolagus cuniculus, UniProt P11716); assay: time-lapse [Ca2+]ER fluorescence assay, HEK293 cells; assay type: cell-based, rabbit
# chiRyR-I4657M/G4819E = chiRyR-I4657M/G4819E (Oryctolagus cuniculus, UniProt P11716, C4657M/F4564Y/G4819E/L4792S/R4563K); assay: biochemical; assay type: biochemical, rabbit; conditions: for [3H]ryanodine binding (B/Bmax): 1 μM TET
# Sf RyR = Sf RyR (Spodoptera frugiperda, UniProt A0A4P8L6R5); assay: time-lapse [Ca2+]ER fluorescence assay, HEK293 cells; assay type: cell-based
smiles,measurement,setting,value
"CNC(=O)c1cc(C#N)cc(C)c1NC(=O)c1cc(Cn2nnc(C(F)(F)F)n2)nn1-c1ncccc1Cl [TET, tetraniliprole]",EC50,chiRyR [1],0.0111 ± 0.0009 µM
same,promotion of [3H]ryanodine binding,chiRyR [1]; 1 μM TET,promote
same,[3H]ryanodine binding (B/Bmax),"chiRyR [1]; 1 μM TET, pCa 2.01",0.5896 and 0.5427 and 0.6286 and 0.5623
same,[3H]ryanodine binding (B/Bmax),"chiRyR [1]; 1 μM TET, pCa 2.54",0.4881 and 0.5388 and 0.5232 and 0.4217
same,[3H]ryanodine binding (B/Bmax),"chiRyR [1]; 1 μM TET, pCa 3.01",0.2889 and 0.3787 and 0.4022 and 0.2616
same,[3H]ryanodine binding (B/Bmax),"chiRyR [1]; 1 μM TET, pCa 3.52",0.2967 and 0.3397 and 0.4256 and 0.2811
same,[3H]ryanodine binding (B/Bmax),"chiRyR [1]; 1 μM TET, pCa 3.89",0.2811 and 0.328 and 0.3319 and 0.2616
same,[3H]ryanodine binding (B/Bmax),"chiRyR [1]; 1 μM TET, pCa 4.5",0.2889 and 0.2655 and 0.3319 and 0.285
same,[3H]ryanodine binding (B/Bmax),"chiRyR [1]; 1 μM TET, pCa 5",0.3163 and 0.2538 and 0.3046 and 0.2694
same,[3H]ryanodine binding (B/Bmax),"chiRyR [1]; 1 μM TET, pCa 5.43",0.3436 and 0.285 and 0.2889 and 0.367
same,[3H]ryanodine binding (B/Bmax),"chiRyR [1]; 1 μM TET, pCa 6.01",0.2772 and 0.2421 and 0.3319 and 0.3085
same,[3H]ryanodine binding (B/Bmax),"chiRyR [1]; 1 μM TET, pCa 6.55",0.3358 and 0.246 and 0.3826
same,[3H]ryanodine binding (B/Bmax),"chiRyR [1]; 1 μM TET, pCa 6.98",0.2616 and 0.2694 and 0.2382 and 0.2108
same,EC50,chiRyR [2],0.0461 µM
same,F/F0,chiRyR [2]; TET 1e-5 uM,0.9259 and 0.9674 and 0.9677
same,F/F0,chiRyR [2]; TET 0.001 uM,0.7877 and 0.806 and 0.7759
same,F/F0,chiRyR [2]; TET 0.01 uM,0.2917 and 0.2699 and 0.2537
same,F/F0,chiRyR [2]; TET 0.1 uM,0.2632 and 0.2374 and 0.2313
same,F/F0,chiRyR [2]; TET 0.5 uM,0.2569 and 0.2462 and 0.2329
same,F/F0,chiRyR [2]; TET 1 uM,0.2399 and 0.24 and 0.2303
same,F/F0,chiRyR [2]; TET 10 uM,0.2639 and 0.2436 and 0.2393
same,F/F0,chiRyR [2]; TET 50 uM,0.3123 and 0.2617 and 0.3022
same,F/F0,rRyR1; TET 0.01 uM,0.9832 and 0.9899 and 0.9753
same,F/F0,rRyR1; TET 0.1 uM,0.9793 and 0.9852 and 0.9641
same,F/F0,rRyR1; TET 0.3 uM,0.9696 and 0.952 and 0.9539
same,F/F0,rRyR1; TET 1 uM,0.9135 and 0.9295 and 0.9254
same,F/F0,rRyR1; TET 3 uM,0.8107 and 0.8058 and 0.7756
same,F/F0,rRyR1; TET 10 uM,0.34 and 0.3602 and 0.3556
same,F/F0,rRyR1; TET 30 uM,0.3168 and 0.2562 and 0.2448
same,F/F0,rRyR1; TET 100 uM,0.2045 and 0.2471 and 0.2529
same,EC50,"rRyR1; diamide insecticides, n = 3, read-out: EC50",7.6 µM
same,EC50,chiRyR-I4657M/G4819E,87.8 ± 6.4 µM
same,[3H]ryanodine binding (B/Bmax),chiRyR-I4657M/G4819E; pCa 3.52,0.1264 and 0.1119 and 0.1409 and 0.1015
same,[3H]ryanodine binding (B/Bmax),chiRyR-I4657M/G4819E; pCa 3.89,0.1367 and 0.1222 and 0.1015
same,[3H]ryanodine binding (B/Bmax),chiRyR-I4657M/G4819E; pCa 4.5,0.1326 and 0.1367 and 0.1347 and 0.1885
same,[3H]ryanodine binding (B/Bmax),chiRyR-I4657M/G4819E; pCa 5,0.172 and 0.0953 and 0.1139 and 0.1243
same,[3H]ryanodine binding (B/Bmax),chiRyR-I4657M/G4819E; pCa 5.43,0.04765 and 0.0663 and 0.05179 and 0.06008
same,EC50,Sf RyR,0.175 µM
same,F/F0,Sf RyR; TET 1e-5 uM,0.9606 and 0.9752 and 0.9813
same,F/F0,Sf RyR; TET 0.001 uM,1.004 and 1.002 and 1.001
same,F/F0,Sf RyR; TET 0.01 uM,0.3097 and 0.3094 and 0.2868
same,F/F0,Sf RyR; TET 0.1 uM,0.2582 and 0.2663 and 0.2776
same,F/F0,Sf RyR; TET 0.5 uM,0.268 and 0.2944 and 0.2596
same,F/F0,Sf RyR; TET 1 uM,0.2734 and 0.2934 and 0.2867
same,F/F0,Sf RyR; TET 10 uM,0.2774 and 0.2809 and 0.2932
same,F/F0,Sf RyR; TET 50 uM,0.2939 and 0.2698 and 0.3129
